Values of other authors, collected in patent US20030008844A1, “Use of sulodexide for the treatment of inflammatory bowel disease” (Keryx Biopharmaceuticals, Inc., priority 2001, published 2003).

How the values were obtained:
[1] = system: steroid-dependent chronically active Crohn's disease; conditions: placebo-controlled trial
perianal Crohn's disease = conditions: uncontrolled trials
ulcerative colitis = conditions: placebo-controlled trial
mild to moderate UC = conditions: oral

## CN(Cc1cnc2nc(N)nc(N)c2n1)c1ccc(C(=O)N[C@@H](CCC(=O)O)C(=O)O)cc1 [methotrexate, Methotrexate]
[1]
  rates of clinical remission: substantially improved

## Cc1ncc([N+](=O)[O-])n1CCO [metronidazole]
Perianal Crohn's disease
  patients showing improvements: practically all patients showed improvements

## CN1CCCC1c1cccnc1 (stereo not shown) [nicotine, Nicotine]
Ulcerative colitis
  maintaining remission of ulcerative colitis: ineffective

## O=C(O)c1cc(/N=N/c2ccc(S(=O)(=O)Nc3ccccn3)cc2)ccc1O [sulfasalazine]
Mild to moderate UC
  efficacy in treatment of mild to moderate UC: superior to placebo and similar or superior to steroid enemas
